Test results: patent US9408891B2, “Methods of using gelsolin to treat or prevent bacterial sepsis” (priority 2003, dated 2016)
Entries after “also recorded” stand apart in the source; their conditions may differ.

Assays:
[1] = tested on: NF-κB translocation in rat primary astrocytes; test: NF-κB translocation to the nucleus in astrocytes; assay type: cell-based; conditions: LPS preincubated with 1.8 μM gelsolin, 2 hour incubation
Experimental: Rat primary astrocytes were obtained from prenatal rats and maintained for 14 days in culture before use. Embryos (E17-E19) were removed by caesarian section from a Sprague-Dawley rat and the hippocampi were surgically removed. The tissue was digested in trypsin/DNAse at 37° C., centrifuged (1000×5 min) and filtered to derive suspensions from each pup. Cells were grown in an incubator at 37° C. and 5% CO2 in DMEM (Dulbecco's Modified Eagle's Medium; BioWhittaker/Cambrex BioScience, East Rutherford, N.J.), supplemented with Ham's F12 (Sigma-Aldrich, St. Louis, Mo.) and 5% fetal bovine serum (FBS) (Hyclone, Logan, Utah) for 7 days, followed by an additional 7 days in Neurobasal medium (Gibco, Grand Island, N.Y.) also supplemented with 5% FBS, 2 mM l-glutamine, 50 μg/ml streptomycin and 50 U/ml penicillin. In each experiment, the medium was changed to serum-free at 6-12 hours prior to addition of LPS, TNF-α, or gelsolin.
HAECs and astrocytes cultures were incubated for 10 minutes in medium containing 10 μg/ml LPS alone, or LPS that had been pre-incubated with 0.16 mg/ml of human gelsolin. Cultures were fixed with ice-cold methanol and immunostained for F-actin with fluorescein isothiocyanate (FITC)-labeled phalloidin (Molecular Probes, Eugene, Oreg.). In astrocyte cultures, NF-κB translocation was manipulated by a 2 hour incubation in serum-free medium containing one of the following: 10 ng/ml TNF-α, 10 μg/ml LPS alone, or LPS that had been preincubated with 0.16 mg/ml human gelsolin. Location of transcription factor nuclear factor-kappaB (NF-κB) was observed using a monoclonal antibody to NF-κB (Molecular Probes), and cell nuclei were detected by counter-staining with 4′, 6-diamidino-2-phenylindole dihydrochloride (DAPI) (Sigma).

[2] = tested on: binding of LPS-binding protein (LBP) to LPS; test: Competition of gelsolin with 125I-LBP for LPS-coated wells (solid phase); conditions: nanomolar concentrations of gelsolin
Experimental: (§1) To determine competition between gelsolin and LPS-binding proteins (LPB), a high affinity carrier for LPS, the LPS-coated wells (1 nmole/per well of LPS Re-595 from Salmonella minnesota) were saturated by incubation (2 hours, 20° C.) with gelsolin 2 mg/ml in RPMI), washed and preincubated with different amount of recombinant human gelsolin (0-2 ng/well) in […] (0.5 mg/ml) containing RPMI. RPMI medium refers to Roswell Park Memorial Institute medium, typically used to culture human lymphoid cells. Then, 10 μl of ^125I-LPB (6×10^4 cpm) were added, and the plates were incubated for 90 minutes at 37° C., then washed six times with RPMI. After that, the bound radioactivity was measured.

[3] = tested on: human aortic endothelial cells (HAEC); test: LPS-induced actin cytoskeleton disassembly, phalloidin staining, endothelial cells; assay type: cell-based; conditions: 2 μM (10 μg/ml) LPS preincubated with 1.8 μM (0.16 mg/ml) gelsolin, 10 min, listed as plasma gelsolin
From the text: (§2) In light of the findings in the previous Examples, and using the materials prepared in above, the effect of the gelsolin binding by LPS was studied to determine the effect on cellular responses in vitro. Cell cultures of human aortic endothelial cells (HAEC) and rat primary astrocytes were used to evaluate the effect of LPS on actin. Both of these cell types have mCD14 (membrane bound C14) and TLR LPS receptors (Faure, et al., J. Biol. Chem. 275:11058-11063 (2000); Bsibsi, et al., J. Neuropathol. Exp. Neurol. 61:1013-1021 (2002); Bowman, et al., Glia 43:281-291 (2003)).
HAECs (primary human aortic endothelial cells) (ATCC, Rockville, Md. or Clonetics, San Diego, Calif.), will grow to confluence through passages 5-9 in endothelial cell growth medium supplemented with 2% fetal bovine serum, 10 μg/liter human recombinant epidermal growth factor, 1 mg/liter hydrocortisone, 50 μg/ml gentamicin, 50 ng/ml amphotericin-B, in a 37° C. humidified atmosphere of 95% air:5% C02.
(§3) HAECs and astrocytes cultures were incubated for 10 minutes in medium containing 10 μg/ml LPS alone, or LPS that had been pre-incubated with 0.16 mg/ml of human gelsolin. […] Location of transcription factor nuclear factor-kappaB (NF-κB) was observed using a monoclonal antibody to NF-κB (Molecular Probes), and cell nuclei were detected by counter-staining with 4′, 6-diamidino-2-phenylindole dihydrochloride (DAPI) (Sigma).

[4] = tested on: endotoxemic C57BL/6 mice (25 mg/kg LPS E. coli 055:B5 i.p.); test: Mortality study of mice challenged with lethal E. coli LPS and treated with GSN, BSA or saline; assay type: in vivo, mouse
Experimental: To study the effect on mortality, animals are injected i.p. with 25 mg/kg LPS (E. coli 055:B5, Sigma) and each mouse is randomly selected to receive one of the following three treatments: 1) GSN (containing: 8 mg of recombinant human plasma gelsolin (Biogen-IDEC, Inc) containing 1 mM Ca dissolved in 400 μl of 0.15 M NaCl (saline); or 2) BSA (containing: 8 mg of bovine albumin (Serologicals Proteins, Inc, Kankakee, Ill.) containing 1 mM Ca dissolved in 400 μl of saline, or 3) saline (containing only 400 μl saline). The GSN (gelsolin), BSA or saline solutions are administered subcutaneously at the dorsal surface of each animal immediately after LPS instillation, and then repeated at 24, 48, and 72 hours.
There are 9 mice in the saline group and 8 mice each in the GSN group and the BSA group. Animals are monitored frequently, and mortality is recorded and presented at an interval of days. Animal mortality study data are presented as Kaplan-Meier curves and log-rank test is used to analyze treatment impact on animal mortality. Ap-value less than 0.05 is considered significant.
To measure gelsolin in vivo, a nucleation assay for plasma gelsolin is performed as follows: the collected mouse plasma is diluted 1:5 in Buffer B (0.1 M KCI, 0.2 mM MgCl2, 1 mM EGTA (ethyleneglycol-bis(2-aminoethyl) N,N,N′,N′,-tetraacetic acid), 0.5 mM ATP, 0.5 mM β-mercaptoethanol, 10 mM Tris-HCl buffer, pH 7.4). From the diluted plasma sample, 5 μl is added to 280 μl Buffer B supplemented with 1.5 mm […] and 0.4 μM phallacidin in 6×50 mm borosilicate culture tubes. The actin polymerization reaction is initiated by adding 15 μl 20 μM pyrene-actin in Buffer A (0.5 mM ATP, 0.5 mM β-mercaptoethanol, 0.2 mM CaCl2 […] buffer, pH 7.4). Polymerization is monitored for 200 seconds in a spectrofluorimeter at excitation and emission wavelengths of 366 and 386 nm respectively. Gelsolin concentrations are estimated from a standard curve using recombinant human plasma gelsolin.

[5] = tested on: LPS-binding protein (LBP); test: Binding of 125I-LBP to gelsolin-coated wells
Experimental: as §1, with “[…]),” for “the LPS-coated wells (1 nmole/per well of LPS Re-595 from Salmonella minnesota) were saturated by incubation (2 hours, 20° C.) with gelsolin 2 mg/ml in RPMI),”

[6] = tested on: human neutrophils / human aortic endothelial cells (HAEC); test: Neutrophil adhesion to LTA-stimulated HAEC; assay type: cell-based; conditions: gelsolin 2 μM added along with LTA 10 μg/ml
From the text: To investigate whether gelsolin can prevent gram-positive bacterial inflammation, the effect of LTA-mediated activation of human neutrophils was examined. Neutrophils were selected because their adhesion to human aorta endothelial cells (HAEC) is a hallmark of inflammation.
Neutrophils were isolated from human blood using the endotoxin-free Lympholyte-poly kit (Cedarlane, Ontario, Canada). The isolated neutrophil cells were resuspended in RPMI media. […] To quantify the adhesion, the neutrophils were labeled with calcein-AM (5 μM for 30 minutes at 37° C.).

rat primary astrocytes = test: LPS-induced actin cytoskeleton disassembly, phalloidin staining, astrocytes; assay type: cell-based; conditions: 2 μM (10 μg/ml) LPS preincubated with 1.8 μM (0.16 mg/ml) gelsolin, 10 min, listed as plasma gelsolin
From the text: as §2
Rat primary astrocytes were obtained from prenatal rats and maintained for 14 days in culture before use. Embryos (E17-E19) were removed by caesarian section from a Sprague-Dawley rat and the hippocampi were surgically removed. The tissue was digested in trypsin/DNAse at 37° C., centrifuged (1000×5 min) and filtered to derive suspensions from each pup. […]
as §3

gelsolin [7] = biological target: T1, gelsolin (Homo sapiens, UniProt P06396); conditions: Goetzl et al. 2000; cited from earlier work
T1 sequence (P06396 28-782): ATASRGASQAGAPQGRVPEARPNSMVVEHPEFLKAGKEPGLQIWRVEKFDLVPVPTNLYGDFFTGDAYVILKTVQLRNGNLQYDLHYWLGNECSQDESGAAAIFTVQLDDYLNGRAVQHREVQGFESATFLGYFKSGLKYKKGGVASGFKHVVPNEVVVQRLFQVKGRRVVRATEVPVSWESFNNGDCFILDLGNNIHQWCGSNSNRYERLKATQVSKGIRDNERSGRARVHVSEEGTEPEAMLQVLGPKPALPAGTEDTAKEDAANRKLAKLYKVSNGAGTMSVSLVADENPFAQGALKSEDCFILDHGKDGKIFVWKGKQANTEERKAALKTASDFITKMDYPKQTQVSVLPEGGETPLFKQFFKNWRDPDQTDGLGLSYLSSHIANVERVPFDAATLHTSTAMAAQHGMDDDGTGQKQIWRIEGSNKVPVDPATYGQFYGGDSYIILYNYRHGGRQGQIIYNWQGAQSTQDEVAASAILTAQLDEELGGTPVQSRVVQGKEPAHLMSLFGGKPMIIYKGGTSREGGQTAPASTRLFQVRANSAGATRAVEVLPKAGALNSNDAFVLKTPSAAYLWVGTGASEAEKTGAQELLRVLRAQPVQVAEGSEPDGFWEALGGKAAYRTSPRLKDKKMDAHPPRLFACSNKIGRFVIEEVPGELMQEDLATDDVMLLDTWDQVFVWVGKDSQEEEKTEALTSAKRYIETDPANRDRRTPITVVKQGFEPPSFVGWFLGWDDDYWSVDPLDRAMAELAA

actin-binding proteins = conditions: Yamamura et al., FEBS Lett. 1996; cited from earlier work
gelsolin [8] = biological target: T1, gelsolin; test: Actin severing activity of gelsolin (50 nM) with LTA or lysolipids; assay type: biochemical
Experimental: The tested gelsolin concentration was 50 nM; LTA ranged from 0-50 μM; Pyrene-F-actin was 0.3 μM. Recording changes in fluorescently-labeled (rhodamine B-labeled) gelsolin peptide PBP10 (10 μM), indicates a specific interaction between gelsolin and LTA.

With gelsolin the “blocking of LPS-induced NF-κB translocation” value [1] was “completely blocked; also recorded: blocked LPS-induced translocation; also recorded: blocked by pre-incubation with gelsolin”, the “inhibition of 125I-LBP binding to LPS coated wells” value [2] was 69±6% and the “effect of gelsolin-preincubated LPS on actin cytoskeleton” value [3] was “no discernable effect on the actin cytoskeletons; also recorded: prevented LPS-induced actin cytoskeleton disassembly”. For the same compound, the “survival compared to saline or BSA controls” value ([4]; 8 mg s.c. immediately after LPS and at 24, 48, 72 hours, listed as plasma gelsolin) was “rescues the endotoxemic mice; also recorded: markedly improved survival”, the “condition of surviving mice” value ([4]; Day 7 / after 1 week) was “complete recovery” and the “plasma gelsolin level restored in LPS-treated animals” value ([4]; s.c. administration) was 200 µg/mL. For the same compound, the “direct binding of 125I-LBP to gelsolin-coated surfaces” value [5] was “did not bind to gelsolin-coated surfaces; also recorded: does not interact directly with the LBP; also recorded: does not bind to gelsolin-coated surfaces”, the “effect on neutrophil adhesion to LTA-stimulated HAEC” value [6] was “inhibit neutrophil adhesion; also recorded: reduced to near baseline values; also recorded: prevents LTA activation of endothelial cells” and the “effect of gelsolin-preincubated LPS on actin cytoskeleton” value (rat primary astrocytes) was “no discernable effect on the actin cytoskeletons; also recorded: prevented LPS-induced actin cytoskeleton disassembly”.
For `CCCCCCCCCCCCC/C=C/[C@@H](O)[C@@H](N)COP(=O)(O)O` [S1P, Sphingosine-1-phosphate], the “binding of S1P by gelsolin” value (gelsolin [7]) is given as “did not bind”, the maximal dissociation (actin-binding proteins) is given as 10% and the “inhibition of gelsolin at higher lipid concentrations” value (gelsolin [8]; above 1 μM) is given as “abrupt drop-off of activity”. For the same compound, the “inhibition of gelsolin by lysolipids” value (gelsolin [8]; lipid below 1 μM) was “at least as strongly as lysophosphatidic acid (LPA); also recorded: also inhibit gelsolin; also recorded: as least as strongly as LPA does”.
